Measurements: patent US11767295B2, “Isoindole derivative” (TIANJIN HEMAY PHARMACEUTICAL CO., LTD., priority 2018, dated 2023)

Tests used:
Assay type in all cases: in vivo
[1] = tested on: DNCB-induced atopic dermatitis in Balb/c mice; assay: Efficacy evaluation test of DNCB-induced atopic dermatitis in Balb/c mice model (Biological Example 2); details: BID × 10; for Inhibitory Rate of Ear Swelling / Weight Changes of Animals, Day 10 / Weight Changes of Animals, Day 17 / Weight Changes of Animals, Day 18 / Ear Swelling Degree / IgE Concentration / Inhibitory Rate of IgE Concentration: 1 mg/mouse on ear; for Inhibitory Rate of Ear Swelling / Ear Swelling Degree / IgE Concentration / Inhibitory Rate of IgE Concentration: 18th day; for Inhibitory Rate of Ear Swelling / Inhibitory Rate of IgE Concentration: vs model and blank control; for Weight Changes of Animals, Day 1 / Weight Changes of Animals, Day 10 / Weight Changes of Animals, Day 17 / Weight Changes of Animals, Day 18: Balb/c mice, Mean ± S.D.; for Weight Changes of Animals, Day 1: 1 mg/mouse (50 mg/mL, 20 μL) on ear; for Ear Swelling Degree: right minus left ear piece weight; for IgE Concentration / Inhibitory Rate of IgE Concentration: serum
Experimental: 70 healthy male SPF Balb/c mice, each of which the weight was 19-21 g, were randomly divided into 7 groups by body weight. There were 10 mice in each group.
Before the test, the hair around the right ear of the mouse was removed to reduce the interference in the drug adhesion to the hair.
The start of the test was recorded as Day 1. After the end of the 18th day of the test, blood was taken from each animal to detect the concentration of immunoglobulin (IgE) in the serum (in accordance with the kit instructions). Both ears of the animal were cut off. Ear pieces were cut by an 8 mm punch at the fixed position of the ears and weighed. Differences in the swelling degrees of two ears were calculated.
The IgE concentrations in the serum of different groups on the 18th day were analyzed and compared statistically with One-Way Anova in SPSS 17, respectively. The G test method was used to delete outliers. p<0.05 indicated there were statistical differences. Ear swelling degree (mg)=right ear weight (mg)−left ear weight (mg); Inhibitory rate of ear swelling degree (%)=1−(ear swelling degree of drug administration group−ear swelling degree of blank control group)/(ear swelling degree of model control group−ear swelling degree of blank control group)×100%; Inhibitory rate of IgE (%)=1−(IgE concentration in administration group−IgE concentration in blank control group)/(IgE concentration in model control group−IgE concentration in blank control group)×100%.

[2] = tested on: ICR mice; assay: Acute toxicity test of single gavage in mice (Biological Example 9); details: single gavage 2000 mg/Kg; for Death of animals: 3 male and 3 female, until the end of the test
Experimental: 30 healthy ICR mice of SPF grade were randomly divided into 5 groups according to the gender segment, in which 15 mice were male and 15 mice were female. There were 3 mice/gender/group. There were 6 mice in each group, in which 3 mice were male and 3 mice were female.
Single administration by gavage was carried out. The symptoms and responses of all the animals were observed after the administration and were recorded faithfully. The test was observed continuously for 15 days. The symptoms of the animals were recorded. After the test, the tissues and organs of all the animals were weighed, observed and recorded. The specimens were kept.
Body weight, appearance, breath, behavior, reflex and defecation.

[3] = tested on: Phorbol ester (TPA)-induced ear swelling in mice; assay: Inhibition of phorbol ester (TPA)-induced ear swelling in mice (Biological Example 6); details: ICR mice, 5 hours after TPA modeling
Experimental: (§1) 72 male ICR mice were selected and divided into 9 groups. There were 8 mice in each group.
(§2) Before the test, the animals were grouped and the hair around the right ear of the mice was removed.
(§3) 20 μL of respective drug was applied to the animals in each test group (a blank solvent was applied to the model control group). Modeling and induction were carried out after 1 h 10 min. Except for the blank group, 20 μL of TPA at a concentration of 125 μg/mL were applied to the right ears of the animals for induction. After induction for 10 minutes, 20 μL of respective drug were applied to the right ears of the animals in each test group (a blank solvent was applied to the model control group).
After modeling for 5 hours, ear pieces of both sides at the same location of animals in each group were taken with a punch and weighed to calculate the ear swelling degree, ear swelling rate and inhibitory rate.
The ear swelling degree and ear swelling rate after modeling and administration for 5 hours were analyzed and tested with One-Way ANOVA multiple-group test index in SPSS17.0. […] Ear swelling degree (mg)=right ear weight (mg)−left ear weight (mg); Ear swelling rate (%)=(right ear weight−left ear weight)/left ear weight×100%; Inhibitory rate of ear swelling degree (%)=1−(swelling degree of drug administration group−swelling degree of blank control group)/(swelling degree of model control group−swelling degree of blank control group)×100%.

[4] = tested on: Phorbol ester (TPA)-induced ear swelling in mice; assay: Inhibition of phorbol ester (TPA)-induced ear swelling in mice (Biological Example 5); details: ICR mice, 5 hours after TPA modeling
Experimental: as §1, §2, §3
After modeling for 5 hours, ear pieces of both sides on the same location of animals in each group were taken with a punch and weighed to calculate the ear swelling degree, ear swelling rate and inhibitory rate.
The ear swelling degree and ear swelling rate after modeling and administration for 5 hours were analyzed and tested with One-Way ANOVA multiple-group test index in SPSS17.0. P<0.05 indicated there were statistical differences. Ear swelling degree (mg)=right ear weight (mg)−left ear weight (mg); Ear swelling rate (%)=(right ear weight−left ear weight)/left ear weight×100%; Inhibitory rate of ear swelling degree (%)=1−(ear swelling degree of drug administration group−ear swelling degree of blank control group)/(ear swelling degree of model control group−ear swelling degree of blank control group)×100%.

[5] = female ICR mice, end of the test
[6] = female ICR mice, observed 15 days
[7] = surviving male ICR mice, end of the experiment
[8] = 2 mg/mouse on right ear, (right−left)/left ear weight
[9] = 2 mg/mouse on right ear, vs model and blank control
[10] = 50 mg/mL in acetone, 40 μL in 2 administrations (2 mg/mouse)

| SMILES | Inhibitory Rate of Ear Swelling [1] [%] | Weight Changes of Animals, Day 1 [1] [g] | Weight Changes of Animals, Day 10 [1] [g] | Weight Changes of Animals, Day 17 [1] [g] | Weight Changes of Animals, Day 18 [1] [g] | Ear Swelling Degree [1] [mg] | IgE Concentration [1] [ng/mL] | Inhibitory Rate of IgE Concentration [1] [%] | Death of animals ([2]; ICR mice) | Clinical observation, female animals [2, 6] | also measured |
| --- | --- | --- | --- | --- | --- | --- | --- | --- | --- | --- | --- |
| CCOC(=O)C[C@@H](c1ccc(OC)c(OCC)c1)N1C(=O)c2cccc(NC(C)=O)c2C1=O [Example 52, ethyl (S)-3-(4-acetamido-1,3-dioxoisoindolin-2-yl)-3-(3-ethoxy-4-methoxyphenyl)propionate] | 60.1 | 21.8 ± 0.5 | 22.6 ± 0.9 | 24.3 ± 5.6 | 24.2 ± 6.0 | 12.0 ± 5.4 | 4141.5 ± 2315.0 | 55.5 | 1 male animal died in the second day of the test. It was | No obvious abnormalities in female animals were observed | Gross anatomy, female animals [2, 5]: until the end of the test. No abnormalities of gross anatomy; Organ indexes, female animals [2, 5]: until the end of the test. No abnormalities of gross anatomy; Gross anatomy, male animals [2, 7]: observed until the end of the experiment. No abnormalities; Organ indexes, male animals [2, 7]: observed until the end of the experiment. No abnormalities |
| COC(=O)C[C@@H](c1ccc(OC)c(OC(C)C)c1)N1C(=O)c2cccc(NC(C)=O)c2C1=O [Example 54, methyl (S)-3-(4-acetamido-1,3-dioxoisoindolin-2-yl)-3-(3-isopropoxy-4-methoxyphenyl)propionate] | 43.1 | 21.6 ± 0.6 | 22.6 ± 0.8 | 23.3 ± 1.2 | 23.1 ± 1.2 | 16.7 ± 3.0 | 4873.7 ± 1356.2 | 45.9 | activity. No death or abnormality of animals was observed | – | Clinical observation: appearance, breath, behavior, reflex and defecation ([2]; ICR mice, male and female, observed 15 days): The main symptom after administration was reduced |
| COC(=O)CC(c1ccc(OC)c(OC(C)C)c1)N1C(=O)c2cccc(NC(C)=O)c2C1=O (stereo not shown) [Example 46, methyl 3-(4-acetamido-1,3-dioxoisoindolin-2-yl)-3-(3-isopropoxy-4-methoxyphenyl)propionate] | 36.2 | 21.6 ± 0.7 | 22.6 ± 0.6 | 23.0 ± 0.7 | 23.1 ± 0.7 | 18.6 ± 3.9 | 4429.8 ± 1713.9 | 51.7 | – | – | Ear Swelling Rate [3, 8]: 44.9 ± 35.5 %; Inhibitory Rate of Ear Swelling Degree [3, 9]: 82.0%; Ear Swelling Degree [3, 10]: 6.4 ± 5.3 mg |
| CCOc1ccc(C(CC(=O)OC)N2C(=O)c3cccc(NC(C)=O)c3C2=O)cc1OCC (stereo not shown) [Example 4, methyl 3-(4-acetamido-1,3-dioxoisoindolin-2-yl)-3-(3,4-diethoxyphenyl)propionate] | – | – | – | – | – | – | – | – | – | After administration, no abnormalities of female animals | Ear Swelling Rate [4, 8]: 34.3 ± 18.2 %; Inhibitory Rate of Ear Swelling Degree [4, 9]: 88.8%; Ear Swelling Degree [4, 10]: 4.8 ± 2.1 mg; Clinical observation, male animals ([2]; male ICR mice, observed 15 days): The male animals had reduced activity and recovered after |
